For 44 molecules, Cmax, IC50 and AUC(0-t) results are on record in ChEMBL document CHEMBL1152369, “Unsymmetrical non-adamantyl N,N'-diaryl urea and amide inhibitors of soluble expoxide hydrolase” (Bioorg Med Chem Lett, 2009).

Data set [1] can be described thus: Cmax in Sprague-Dawley rat at 5 mg/kg, po by LC/MS/MS analysis. The format is ADME, organism-based. On the set-up: dose 5 mg/kg, route oral. The following applies: in vivo.
The target of data set [2] is T1, Bifunctional epoxide hydrolase 2 (Homo sapiens, UniProt P34913).
T1 sequence (P34913 whole entry): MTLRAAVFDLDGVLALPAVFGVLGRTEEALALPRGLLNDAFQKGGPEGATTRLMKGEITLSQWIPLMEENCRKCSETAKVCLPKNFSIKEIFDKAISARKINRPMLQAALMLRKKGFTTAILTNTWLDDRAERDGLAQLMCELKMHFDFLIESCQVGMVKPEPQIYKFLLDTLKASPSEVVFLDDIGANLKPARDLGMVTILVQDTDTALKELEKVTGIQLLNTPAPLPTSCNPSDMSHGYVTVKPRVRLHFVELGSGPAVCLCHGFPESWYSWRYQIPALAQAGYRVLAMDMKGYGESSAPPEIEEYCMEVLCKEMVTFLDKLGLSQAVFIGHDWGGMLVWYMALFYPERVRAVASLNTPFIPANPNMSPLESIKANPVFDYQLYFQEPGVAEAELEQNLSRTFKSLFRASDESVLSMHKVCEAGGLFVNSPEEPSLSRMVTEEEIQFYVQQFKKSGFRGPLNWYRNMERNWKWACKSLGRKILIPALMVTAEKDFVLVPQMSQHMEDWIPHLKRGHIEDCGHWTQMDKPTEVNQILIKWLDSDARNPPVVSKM
The data set can be described thus: Inhibition of human soluble epoxide hydrolase by fluorescent endpoint assay.

The nature of data set [3]: AUC (0 to 24 hrs) in Sprague-Dawley rat at 5 mg/kg, po by LC/MS/MS analysis. The format is ADME, organism-based. Particulars: plasma. Set-up: time < 24 hr, dose 5 mg/kg, route oral.

pIC50: −log10 of the molar value.

With `O=C(Nc1ccc(C(F)(F)F)cc1)Nc1cccc(OCCCN2CCOCC2)c1`, the concentration in data set [1] peaked (Cmax) at 5 ng/mL. Further, in data set [2], the pIC50 (as a rule, the negative decadic logarithm of the IC50, by convention in mol/L) was 9.00. Also, the AUC(0-t) (usually exposure summed from dosing to a finite time, without extrapolation to infinity) at 24 h in data set [3] was 8 ng·h/mL.
The molecule `O=C(Nc1ccc(OC(F)(F)F)cc1)Nc1cccc(OCCCN2CCOCC2)c1` had a pIC50 in data set [2] of 8.10.
Take `O=C(Nc1cccc(OCCCN2CCOCC2)c1)NC1CCCCC1`: the highest level in data set [1] (Cmax) was 102 ng/mL. In data set [3], this molecule displayed an AUC(0-t) at 24 h of 131 ng·h/mL.
With `O=C(Nc1ccccc1)Nc1cccc(OCCCN2CCOCC2)c1`, the highest level in data set [1] (Cmax) was 1570 ng/mL. This molecule also gave a pIC50 in data set [2] of 7.42. In data set [3], this molecule had an AUC(0-t) at 24 h of 3570 ng·h/mL.
Consider `O=C(CC12CC3CC(CC(C3)C1)C2)Nc1ccc(OCCCN2CCOCC2)cc1`, for which, in data set [2], the pIC50 was 8.89.
On to `O=C(Nc1ccc(F)c(OCCCN2CCOCC2)c1)NC1CCCCC1`, for which, in data set [2], the pIC50 is 8.19.
For `O=C(Cc1ccc2c(c1)OCO2)Nc1cccc(OCCCN2CCOCC2)c1`, the negative logarithm of the IC50 (pIC50) in data set [2] was 6.44.
In turn, `CN(C)c1cccc(NC(=O)Nc2cccc(OCCCN3CCOCC3)c2)c1` gave a pIC50 in data set [2] of 6.62.
`O=C(Nc1ccc(Cl)cc1)Nc1ccc(F)c(OCCCN2CCOCC2)c1`: the pIC50 in data set [2] was 8.32.
For the molecule `O=C(Cc1ccc(F)c(F)c1)Nc1cccc(OCCCN2CCOCC2)c1`, the pIC50 in data set [2] was 6.49.
On the same count and under the same terms, the value for `CC(C)(C)NC(=O)Nc1cccc(OCCCN2CCOCC2)c1` was 5.98; that for `O=C(Nc1ccc(Cl)cc1)Nc1ccc(OCCCN2CCOCC2)cc1` was 8.82.
`O=C(Nc1ccc(F)cc1)Nc1cccc(OCCCN2CCOCC2)c1`: the Cmax (in general, the highest concentration seen after dosing) in data set [1] was 123 ng/mL. In addition, in data set [2], the pIC50 was 7.85. The area under the curve AUC(0-t) at 24 h in data set [3] turned out to be 491 ng·h/mL.
Molecule `O=C(Cc1cccnc1)Nc1cccc(OCCCN2CCOCC2)c1` showed a pIC50 in data set [2] of 4.85.
Turning to `O=C(Nc1ccc(OCCCN2CCOCC2)cc1)Nc1ccc(OC(F)(F)F)cc1`, the pIC50 in data set [2] was 9.10.
Still for that read-out and setting: the value for `O=C(Nc1ccc(F)cc1)Nc1ccc(F)c(OCCCN2CCOCC2)c1` was 7.40.
In data set [2], `O=C(CC12CC3CC(CC(C3)C1)C2)Nc1ccc(F)c(OCCCN2CCOCC2)c1` showed a pIC50 of 8.18.
As to `CC(C)(C)CC(=O)Nc1cccc(OCCCN2CCOCC2)c1`, the pIC50 in data set [2] is 5.81.
`O=C(Cc1ccccc1)Nc1ccc(OCCCN2CCOCC2)cc1` gave a pIC50 in data set [2] of 6.06.
As for `O=C(Cc1ccc(C(F)(F)F)cc1)Nc1ccc(OCCCN2CCOCC2)cc1`, the pIC50 in data set [2] is 7.27.
In turn, `O=C(Cc1ccc(OC(F)(F)F)cc1)Nc1ccc(OCCCN2CCOCC2)cc1` gave a pIC50 in data set [2] of 7.38.
In the case of `O=C(Cc1ccc(Cl)cc1)Nc1cccc(OCCCN2CCOCC2)c1`, in data set [2], the negative logarithm of the IC50 (pIC50) is 6.94.
As to `O=C(Nc1ccccc1)Nc1ccc(F)c(OCCCN2CCOCC2)c1`, the pIC50 in data set [2] was 7.09.
In the case of `O=C(Nc1cccc(OCCCN2CCOCC2)c1)Nc1cccc(C(F)(F)F)c1`, the pIC50 in data set [2] was 7.86.
Consider `O=C(Nc1cccc(OCCCN2CCOCC2)c1)Nc1ccc2c(c1)OCO2`, for which the concentration in data set [1] peaked (Cmax) at 218 ng/mL. Further, the pIC50 in data set [2] is 7.48. In data set [3], this molecule gave an AUC(0-t) at 24 h of 753 ng·h/mL.
For the molecule `O=C(Cc1ccc(Cl)cc1)Nc1ccc(OCCCN2CCOCC2)cc1`, the pIC50 in data set [2] is 6.85.
Regarding `O=C(Nc1cccc(OCCCN2CCOCC2)c1)Nc1c(F)cc(F)cc1F`, the pIC50 in data set [2] was 5.73.
For the molecule `O=C(Nc1ccc(F)c(OCCCN2CCOCC2)c1)NC12CC3CC(CC(C3)C1)C2`, in data set [2], the pIC50 is 9.10.
As for `O=C(Nc1ccc(C(F)(F)F)cc1)Nc1ccc(F)c(OCCCN2CCOCC2)c1`, the negative-log IC50 (pIC50) in data set [2] was 8.89.
Still for that read-out and setting: the result for `O=C(Nc1cccnc1)Nc1cccc(OCCCN2CCOCC2)c1` reads 5.30; that for `O=C(Nc1ccc(OC(F)(F)F)cc1)Nc1ccc(F)c(OCCCN2CCOCC2)c1`, 9.10.
In the case of `O=C(Nc1ccccc1)Nc1ccc(OCCCN2CCOCC2)cc1`, the pIC50 in data set [2] is 7.41.
The molecule `O=C(Nc1ccc(OCCCN2CCOCC2)cc1)Nc1ccc(C(F)(F)F)cc1` displayed a Cmax in data set [1] of 263 ng/mL. In data set [2], the pIC50 is 9.10. In data set [3], this molecule came in with an AUC(0-t) at 24 h of 1050 ng·h/mL.
Regarding `O=C(Nc1cccc(OCCCN2CCOCC2)c1)Nc1ccc(F)c(F)c1`, in data set [1], the Cmax turned out to be 3 ng/mL. In data set [2], the negative logarithm of the IC50 (pIC50) is 7.96. In data set [3], the AUC(0-t) at 24 h stood at 3 ng·h/mL.
As for `O=C(Cc1ccc(OC(F)(F)F)cc1)Nc1cccc(OCCCN2CCOCC2)c1`, the pIC50 in data set [2] is 7.37.
The molecule `O=C(Cc1ccc(OC(F)(F)F)cc1)Nc1ccc(F)c(OCCCN2CCOCC2)c1` gave a pIC50 in data set [2] of 6.84.
Same read-out and setting: the value for `O=C(CC12CC3CC(CC(C3)C1)C2)NC1CCCC(OCCCN2CCOCC2)C1` (stereo not drawn) was 8.28.
Same read-out and setting: the result for `O=C(NC1CCCC(OCCCN2CCOCC2)C1)NC12CC3CC(CC(C3)C1)C2` (stereo not drawn) reads 8.60; that for `O=C(Nc1cccc(OCCCN2CCOCC2)c1)Nc1c(Cl)cccc1Cl`, 5.00.
In turn, `O=C(Cc1ccc(F)cc1)Nc1cccc(OCCCN2CCOCC2)c1` displayed a Cmax in data set [1] of 48 ng/mL. The pIC50 in data set [2] is 6.26. Further, the AUC(0-t) at 24 h in data set [3] stood at 57 ng·h/mL.
Molecule `O=C(Nc1ccc(Cl)cc1)Nc1cccc(OCCCN2CCOCC2)c1` yielded a Cmax in data set [1] of 6 ng/mL. This molecule gave a pIC50 in data set [2] of 8.70. In addition, the exposure AUC(0-t) at 24 h in data set [3] was found to be 9 ng·h/mL.
`O=C(Cc1ccc(C(F)(F)F)cc1)Nc1ccc(F)c(OCCCN2CCOCC2)c1` showed a pIC50 in data set [2] of 6.81.
Consider `O=C(Nc1cccc(OCCCN2CCOCC2)c1)Nc1ccc(F)cc1F`, for which, in data set [2], the pIC50 is 6.92.
`O=C(Nc1ccc(OCCCN2CCOCC2)cc1)NC1CCCCC1`: in data set [1], the peak level (Cmax) was 669 ng/mL. In addition, the pIC50 in data set [2] is 8.27. Further, in data set [3], the exposure AUC(0-t) at 24 h was 863 ng·h/mL.
